Reference: US20220071961A1, “Dosing Regimen of Bicyclic Substituted Pyrazolone Azo Derivative” (Jiangsu Hengrui Medicine CO., LTD., priority 2019, published 2022)
Where two headings read alike, the source gives them in different places.

Assay: Effect of different intervals between administration and a meal on pharmacokinetic parameters (three-period crossover, single oral dose)
Type: in vivo, human
Settings: single oral 7.5 mg; for AUC(0-t) / AUC / Cmax / MRT / Tmax / Vd/F / half-life: male, human, plasma, po, 7.5 mg; for MRT: read-out: MRT Geomean (% CVb); for Tmax: read-out: Tmax Median; for Vd/F: read-out: Vz/F Geomean (% CVb)
Description: Embodiment 1: Study on an effect of different intervals between the administration and a meal on pharmacokinetic parameters of a compound represented by Formula I
Diethanolamine salt tablets of the compound represented by Formula I, with specifications of 2.5 mg/table and 5 mg/tablet.
15 healthy adult male subjects were recruited for the trial. They were randomly divided into three trial groups which correspond to three dosing sequences, i.e. ABC, BCA and CAB. A cleaning period is 10 days.
Group A: every subject orally took the test products (one T1: 2.5 mg/tablet and one T2: 5 mg/tablet) once on an empty stomach with 240 mL of room temperature water on the morning of the test. […] They were not allowed to drink water within 1 h before administration and 1 h after administration, but were allowed to drink water as needed for the rest time.
(§1) Group B: every subject orally took the test products (one T1: 2.5 mg/tablet and one T2: 5 mg/tablet) once on an empty stomach with 240 mL of room temperature water on the morning of the test. They ate high-fat and high-calorie standard meals 1 h after administration, needed to stagger the timing of the breakfast and the blood sampling, and needed to finish the breakfast within 30 min. They were not allowed to drink water within 1 h before administration and 1 h after administration, but were allowed to drink water as needed for the rest time.
as §1, with “Group C:” for “Group B:”, “meals 2” for “meals 1”
The high-fat meal: calories: 800 to 1,000 kcal, composed of 150 kcal of protein, 250 kcal of carbohydrates and 500 to 600 kcal of fats, wherein about 50% of the calories come from the fats. The ingredients and proportions of the standard meals needed to be consistent in each test period. The specific administration sequences are shown in a table below. An effect of food on the medicine was analyzed by sampling blood at fixed time points before and after administration and measuring vital signs.
In the test, there were Group A (without a breakfast after administration), Group B (with a high-fat and high-calorie standard meal 1 h after administration) and Group C (with a high-fat and high-calorie standard meal 2 h after administration) which correspond to threes administration sequences, i.e. ABC, BCA and CAB. A non-compartmental model (NCA) of WinNonlin 7.0 version was used to calculate PK parameters according to the actual sampling time, and software of SAS 9.4 version was used to list and make descriptive statistical analysis on the PK parameters. Results of descriptive statistical analysis of the PK parameters of the compound represented by Formula I of the subjects in the groups (Group A, Group B and Group C) with different intervals between the administration and a meal are shown in Table 2.
A mixed-effects model was used to perform analysis of variance (ANOVA) on the PK parameters (Cmax, AUC0-t and AUC0-τ), which are subjected to natural log conversion, of the subjects in the groups with different intervals between administration and a meal by using the software of SAS 9.4 version.

[1] = Group B vs Group A (meal 1 h after administration vs no food)
[2] = Group B vs Group C (meal 1 h vs meal 2 h after administration)
[3] = Group C vs Group A (meal 2 h after administration vs no food)
[4] = food 1 h after administration relative to food 2 h after administration
[5] = food 1 h after administration relative to no food after administration
[6] = food 2 h after administration relative to no food after administration
[7] = Group A, without a breakfast after administration, N = 15
[8] = Group B, high-fat meal 1 h after administration, N = 14
[9] = Group C, high-fat meal 2 h after administration, N = 14

AUC0-t GeoLSM Ratio [1]: 23.65%
AUC0-ē GeoLSM Ratio [1]: 25.37%
Cmax GeoLSM Ratio [1]: 44.01%
AUC0-t GeoLSM Ratio [2]: 66.10%
AUC0-ē GeoLSM Ratio [2]: 65.76%
Cmax GeoLSM Ratio [2]: 78.12%
AUC0-t GeoLSM Ratio [3]: 35.78%
AUC0-ē GeoLSM Ratio [3]: 38.57%
Cmax GeoLSM Ratio [3]: 56.33%
AUC0-τ reduced by [4]: ~34%
Cmax reduced by [4]: about 22%
AUC0-τ reduced by [5]: ~75%
Cmax reduced by [5]: about 56%
AUC0-τ reduced by [6]: ~61%
Cmax reduced by [6]: about 44%
AUC(0-t) (Group A, no food after administration, n 15, mixed-effects ANOVA, read-out: AUC0-t GeoLSM (geometric least squares mean)): 857 ng·h/mL
AUC (Group A, no food after administration, n 15, mixed-effects ANOVA, read-out: AUC0-ē GeoLSM (geometric least squares mean)): 929 ng·h/mL
Cmax (Group A, no food after administration, n 15, mixed-effects ANOVA, read-out: Cmax GeoLSM (geometric least squares mean)): 35.1 ng/mL
AUC(0-t) (Group A, without a breakfast after administration, N = 15, read-out: AUC0-t Geomean (% CVb)): 857 ng·h/mL
AUC(0-t) (Group A, without a breakfast after administration, N = 15, read-out: AUC0-t Mean SD): 1040 ng·h/mL
AUC (Group A, without a breakfast after administration, N = 15, read-out: AUC0-ē Geomean (% CVb)): 929 ng·h/mL
AUC (Group A, without a breakfast after administration, N = 15, read-out: AUC0-ē Mean SD): 1110 ng·h/mL
Cmax (Group A, without a breakfast after administration, N = 15, read-out: Cmax Geomean (% CVb)): 35.1 ng/mL
Cmax (Group A, without a breakfast after administration, N = 15, read-out: Cmax Mean SD): 39.2 ng/mL
MRT [7]: 32.1 h
Tmax [7]: 7 h
Vd/F [7]: 308 L
half-life (Group A, without a breakfast after administration, N = 15, read-out: t1/2 Geomean (% CVb) (converted)): 26.4 h
half-life (Group A, without a breakfast after administration, N = 15, read-out: t1/2 Mean SD (converted)): 29.3 h
Tmax (Group B, high-fat and high-calorie standard meal 1 h after administration, N = 14): 2 h
AUC(0-t) (Group B, high-fat meal 1 h after administration, N = 14, read-out: AUC0-t Geomean (% CVb)): 202 ng·h/mL
AUC(0-t) (Group B, high-fat meal 1 h after administration, N = 14, read-out: AUC0-t Mean SD): 314 ng·h/mL
AUC (Group B, high-fat meal 1 h after administration, N = 14, read-out: AUC0-ē Geomean (% CVb)): 235 ng·h/mL
AUC (Group B, high-fat meal 1 h after administration, N = 14, read-out: AUC0-ē Mean SD): 347 ng·h/mL
Cmax (Group B, high-fat meal 1 h after administration, N = 14, read-out: Cmax Geomean (% CVb)): 15.4 ng/mL
Cmax (Group B, high-fat meal 1 h after administration, N = 14, read-out: Cmax Mean SD): 21.1 ng/mL
MRT [8]: 17.4 h
Vd/F [8]: 531 L
half-life (Group B, high-fat meal 1 h after administration, N = 14, read-out: t1/2 Geomean (% CVb) (converted)): 11.6 h
half-life (Group B, high-fat meal 1 h after administration, N = 14, read-out: t1/2 Mean SD (converted)): 13.1 h
AUC(0-t) (Group B, meal 1 h after administration, n 14, mixed-effects ANOVA, read-out: AUC0-t GeoLSM (geometric least squares mean)): 203 ng·h/mL
AUC (Group B, meal 1 h after administration, n 14, mixed-effects ANOVA, read-out: AUC0-ē GeoLSM (geometric least squares mean)): 236 ng·h/mL
Cmax (Group B, meal 1 h after administration, n 14, mixed-effects ANOVA, read-out: Cmax GeoLSM (geometric least squares mean)): 15.5 ng/mL
Tmax (Group C, high-fat and high-calorie standard meal 2 h after administration, N = 14): 5.01 h
AUC(0-t) (Group C, high-fat meal 2 h after administration, N = 14, read-out: AUC0-t Geomean (% CVb)): 303 ng·h/mL
AUC(0-t) (Group C, high-fat meal 2 h after administration, N = 14, read-out: AUC0-t Mean SD): 547 ng·h/mL
AUC (Group C, high-fat meal 2 h after administration, N = 14, read-out: AUC0-ē Geomean (% CVb)): 355 ng·h/mL
AUC (Group C, high-fat meal 2 h after administration, N = 14, read-out: AUC0-ē Mean SD): 591 ng·h/mL
Cmax (Group C, high-fat meal 2 h after administration, N = 14, read-out: Cmax Geomean (% CVb)): 19.6 ng/mL
Cmax (Group C, high-fat meal 2 h after administration, N = 14, read-out: Cmax Mean SD): 28.6 ng/mL
MRT [9]: 21.4 h
Vd/F [9]: 460 L
half-life (Group C, high-fat meal 2 h after administration, N = 14, read-out: t1/2 Geomean (% CVb) (converted)): 15.1 h
half-life (Group C, high-fat meal 2 h after administration, N = 14, read-out: t1/2 Mean SD (converted)): 18.6 h
AUC(0-t) (Group C, meal 2 h after administration, n 14, mixed-effects ANOVA, read-out: AUC0-t GeoLSM (geometric least squares mean)): 307 ng·h/mL
AUC (Group C, meal 2 h after administration, n 14, mixed-effects ANOVA, read-out: AUC0-ē GeoLSM (geometric least squares mean)): 358 ng·h/mL
Cmax (Group C, meal 2 h after administration, n 14, mixed-effects ANOVA, read-out: Cmax GeoLSM (geometric least squares mean)): 19.8 ng/mL
% AUCex Geomean (% CVb) [7]: 6.62%
CL/F Geomean (% CVb) [7]: 8.0740 L/h
CL/F Mean SD [7]: 10.4506 L/h
≅z Geomean (% CVb) [7]: 0.0263 h⁻¹
% AUCex Geomean (% CVb) [8]: 11.39%
CL/F Geomean (% CVb) [8]: 31.8657 L/h
CL/F Mean SD [8]: 52.4396 L/h
≅z Geomean (% CVb) [8]: 0.0600 h⁻¹
% AUCex Geomean (% CVb) [9]: 10.57%
CL/F Geomean (% CVb) [9]: 21.1107 L/h
CL/F Mean SD [9]: 42.1126 L/h
≅z Geomean (% CVb) [9]: 0.0459 h⁻¹
Compound: CC1=NN(c2ccc3c(c2)CCCC3)C(=O)/C1=N\Nc1cccc(-c2ccc(C(=O)O)o2)c1O [compound represented by Formula I]
